According to patent publication US7348401B2, “Peptides that inhibit complement activation” (priority 2003, dated 2008):
Where no end group is shown, it is not given here.

Tests used:
[1] = tested on: classical pathway; antibody sensitized sheep erythrocyte cells; test: Classical pathway hemolytic assay (RBC hemolysis assay); type: cell-based, human; conditions: for inhibition of hemolysis: 100 uM peptide
Experimental: Inhibition of the classical pathway by the peptides was measured using a standard hemolysis assay, which monitors the lysis of sheep erythrocytes as a result of terminal complex formation (see e.g. FIG. 1, FIG. 10). Various concentrations of peptide were incubated with 50 μL pooled human plasma (diluted 1:30 with GVB^++), 5×10^7 antibody sensitized sheep erythrocyte cells, and GVB^++ buffer to a final volume of 200 μL. The reaction was incubated at 37° C. for one hour and centrifuged. The percentage of lysis was determined by measuring the optical density of the supernatant at 414 nm. 100% lysis was determined by the optical density at 414 nm of the supernatant from a control sample consisting of 5×10^7 antibody sensitized sheep erythrocyte cells in water. The percent inhibition was calculated as the (% lysisno peptide−% lysispeptide)/% lysisno peptide×100.

alternative pathway = test: Alternative activation pathway C.A. membrane assay (ELISA for C5a, SC5b-9, C3a); type: biochemical; conditions: cellulose acetate hemodialysis membrane, human plasma
Experimental: Inhibition of the alternative pathway by the peptides was determined by incubating pooled human plasma in the presence and absence of various concentrations of peptide with 20 mg of cellulose acetate hemodialysis membrane at 37° C. for one hour. The reaction was stopped with EDTA and then the samples were analyzed with commercially available ELISA's for the production of C5a (Pharmingen), SC5b-9 (Quidel), and C3a (Quidel).

classical pathway = test: Classical pathway component assay (immune complex, ELISA for C5a, SC5b-9, C3a); type: biochemical, human; conditions: classical pathway, immune complex, human plasma
Experimental: The inhibition of the classical pathway by the peptides was measured by incubating human plasma in the presence and absence of peptides with an immune complex generated on a surface and then monitoring for the production of complement components C5a, SC5b-9, and C3a. To generate the immune complex, a 10 mg/mL solution of BSA in PBS was incubated at 56° C. for 30 minutes and then used to coat the surface of a microplate by diluting to 50 μg/mL at pH 9.6 and incubating for one hour at 37° C. The plate was washed and then incubated with 18 μg/mL mouse anti-BSA IgG2a (Sigma) for one hour at 37° C. Pooled human plasma with and without various concentrations of peptide were incubated for 30 minutes at 37° C. with the generated immune complex and the reaction was stopped with the addition of EDTA. The plasma samples were then analyzed with commercially available ELISA's for the production of C5a (Pharmingen), SC5b-9 (Quidel), and C3a (Quidel).

complement component C5 = biological target: T1, complement component C5 (Homo sapiens, UniProt P01031); test: Phage clone binding to C5 and free-peptide competition assay; conditions: for competition among phage clones and free peptides for binding to C5: free peptide at 50, 10 and 1 μM; for specific binding to complement component C5: phage panning / phage clone binding
T1 construct: purchased Advanced Research Technologies
Experimental: Peptides were identified by panning an M13 phage library (New England Biolabs), a random 12mer peptide library with a diversity of 10^11 different peptide structures, against complement component C5. The phage library was panned against C5 using three different methods for immobilizing C5. The binding reactions all contained 2×10^11 phage particles in PBS containing 0.5% BSA and 0.3% Tween 20. The binding reactions were carried out at 25° C. for two hours and then unbound phage were removed by washing 5 times with PBS containing 0.5% BSA and 0.3% Tween20. The phage were eluted by acid (0.2 M Glycine pH 2.2, 1 mg/mL BSA) and immediately neutralized with 1 M Tris pH 9.1. Following elution, recovered phage were amplified in ER2738 E. coli (NEB) and subjected to two more rounds of panning as described above. The methods for immobilizing C5 include directly coating C5 (Advanced Research Technologies) to the surface (1 μg/mL), capturing biotinylated C5 (1 μg/mL) on a neutravidin (Pierce) coated surface, and capturing biotinylated C5a (1 μg/mL) on a neutravidin (Pierce) coated surface. C5 and C5a (Quidel) were biotinylated by incubating with 10 fold molar excess of Sulfo-NHS-LC-LC-Biotin for 2 hours at room temperature at pH 7.4 and then removing excess biotin by gel filtration. A negative selection was performed in the final round against neutravidin for the two latter screening methods. DNA from twenty randomly selected clones from each of the three final libraries was isolated and sequenced.
The binding sites of the peptides were further probed via C5-binding competition assays. Increasing concentrations of each phage clone were incubated for 2 hours with 200 ng of biotinylated C5 in PBS containing 0.5% BSA. The phage bound C5 complex was captured on a neutravidin coated microplate for 20 minutes at room temperature and then washed with PBS containing 0.5% BSA. A peroxidase labeled anti-M13 antibody (Pharmacia) was used to detect the amount of phage bound to C5 with OPD substrate. Competition assays with free peptide were carried out in a similar manner except that one concentration of each phage clone was used which was determined as the concentration giving approximately 50% binding in the previous titration. Free peptide was added to the phage clones at concentrations of 50, 10 and 1 μM and incubated with the biotinylated C5 and the assay was carried out as above.

[2] = tested on: complement system activated by zymosan; test: Alternative activation pathway zymosan assay (ELISA for C5a, SC5b-9, C3a); type: biochemical; conditions: 2 mg/mL zymosan, human plasma
Experimental: The peptides were evaluated for involvement in activation of the complement system by the presence of zymosan. Zymosan, or yeast cell wall, has largely been described as an alternative pathway activator. In addition, there are sugars on the surface of the yeast cell wall which are capable of activating the lectin pathway. Therefore, zymosan can be considered as a general complement activator.
Varying concentrations of peptide were incubated with 2 mg/mL zymosan in pooled human plasma. The reactions were incubated at 37° C. for one hour and then stopped by the addition of EDTA. The samples were centrifuged, the plasma removed, and analyzed with commercially available ELISA's for the production of C5a (Pharmingen), SC5b-9 (Quidel), and C3a (Quidel).

Human mesangial cells = test: Inhibition of complement mediated cell death, in vitro autoimmune glomerulonephritis model; type: cell-based; conditions: 250 μM of peptide, 48 hours
Experimental: The peptides were evaluated for their ability to inhibit complement mediated cell death in an in vitro autoimmune glomerulonephritis model. Human mesangial cells were cultured to approximately 75% confluency and then treated for one hour at 37° C. with phosphatidyl inositol-phospholipase C to remove GPI-anchored complement regulatory proteins. Following enzyme treatment, the cells were washed and equilibrated in GSBM growth medium supplemented with 2.5% fetal bovine serum for one hour at 37° C. The cells were then incubated in pooled human plasma supplemented with 100 μg/mL of heat aggregated human IVIG (generated by heating at 63° C. for 30 minutes) either in the presence of absence of various concentrations of peptides for 48 hours at 37° C. The source of complement was replenished every 12 hours during the incubation by adding 25% of the original volume of fresh plasma along with heat aggregated IVIG and peptides so that the same final concentrations were maintained. Following the 48 hour incubation, the cells were stained with the commercial Live/Dead Viability kit (Molecular Probes) and the relative fluorescence was measured to determine the extent of cell death. The percent of cell death was calculated versus a control sample in which heat-inactivated plasma, (heated to 56° C. for 30 minutes) as a means of inactivating complement components, was used.

T1 sequence (P01031 19-1676): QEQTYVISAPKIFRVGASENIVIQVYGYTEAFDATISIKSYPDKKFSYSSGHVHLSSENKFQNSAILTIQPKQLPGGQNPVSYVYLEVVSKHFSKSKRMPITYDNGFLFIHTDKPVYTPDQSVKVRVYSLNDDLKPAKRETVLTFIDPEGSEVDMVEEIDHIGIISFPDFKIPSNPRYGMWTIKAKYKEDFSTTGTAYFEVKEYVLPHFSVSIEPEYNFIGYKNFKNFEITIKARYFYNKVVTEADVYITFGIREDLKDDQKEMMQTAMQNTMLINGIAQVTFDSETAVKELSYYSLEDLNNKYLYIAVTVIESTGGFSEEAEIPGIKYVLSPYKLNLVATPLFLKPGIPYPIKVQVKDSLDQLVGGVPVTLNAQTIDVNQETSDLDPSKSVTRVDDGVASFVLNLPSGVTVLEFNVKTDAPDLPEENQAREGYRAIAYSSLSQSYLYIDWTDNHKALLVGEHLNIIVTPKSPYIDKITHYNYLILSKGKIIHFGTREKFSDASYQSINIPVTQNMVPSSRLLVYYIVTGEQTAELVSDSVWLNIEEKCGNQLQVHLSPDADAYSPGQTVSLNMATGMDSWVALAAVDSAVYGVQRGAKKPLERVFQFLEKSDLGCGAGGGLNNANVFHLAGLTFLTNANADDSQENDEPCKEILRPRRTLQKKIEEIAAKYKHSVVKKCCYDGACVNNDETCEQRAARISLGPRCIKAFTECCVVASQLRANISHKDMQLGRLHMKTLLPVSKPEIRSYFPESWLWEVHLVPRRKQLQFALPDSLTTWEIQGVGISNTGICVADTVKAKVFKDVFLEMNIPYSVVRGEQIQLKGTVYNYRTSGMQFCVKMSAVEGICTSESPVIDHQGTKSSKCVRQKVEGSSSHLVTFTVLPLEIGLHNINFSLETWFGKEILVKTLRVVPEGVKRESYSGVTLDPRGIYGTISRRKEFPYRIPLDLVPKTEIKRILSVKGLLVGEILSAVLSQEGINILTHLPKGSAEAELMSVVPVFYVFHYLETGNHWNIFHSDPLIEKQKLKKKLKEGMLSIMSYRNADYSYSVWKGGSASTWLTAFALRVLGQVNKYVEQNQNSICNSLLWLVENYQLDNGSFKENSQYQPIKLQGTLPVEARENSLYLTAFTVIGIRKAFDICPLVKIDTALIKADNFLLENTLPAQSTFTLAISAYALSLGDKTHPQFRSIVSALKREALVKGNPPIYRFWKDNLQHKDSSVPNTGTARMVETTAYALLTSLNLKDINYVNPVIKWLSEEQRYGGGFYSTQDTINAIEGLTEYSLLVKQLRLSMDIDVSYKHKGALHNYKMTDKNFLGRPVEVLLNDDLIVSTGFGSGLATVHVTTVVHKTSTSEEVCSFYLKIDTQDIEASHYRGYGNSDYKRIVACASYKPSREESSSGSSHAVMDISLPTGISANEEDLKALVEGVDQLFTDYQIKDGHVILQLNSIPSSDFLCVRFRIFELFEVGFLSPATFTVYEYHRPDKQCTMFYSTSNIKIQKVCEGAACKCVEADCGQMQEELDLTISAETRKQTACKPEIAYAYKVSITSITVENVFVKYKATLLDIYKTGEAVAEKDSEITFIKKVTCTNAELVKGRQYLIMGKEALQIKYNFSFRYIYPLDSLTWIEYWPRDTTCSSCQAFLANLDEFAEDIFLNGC

| Sequence | inhibition of hemolysis [1] | C3a production (alternative pathway) | C5a generation (alternative pathway) | SC5b-9 generation (alternative pathway) | C3a production (classical pathway) | C5a production (classical pathway) | SC5b-9 production (classical pathway) | competition among phage clones and free peptides for binding to C5 (complement component C5) | specific binding to complement component C5 (complement component C5) | C3a generation [2] | C5a production [2] | SC5b-9 production [2] | inhibition of complement mediated cell death (Human mesangial cells) | inhibitory activity in RBC hemolysis assay compared with parent peptide [1] |
| --- | --- | --- | --- | --- | --- | --- | --- | --- | --- | --- | --- | --- | --- | --- |
| SFNDLLWRWEWP [Peptide 7] | significant inhibition of hemolysis | activated | inhibited | inhibited | enhanced production | inhibited | inhibited | significant competition | specifically bound complement component C5 | activated | inhibited | inhibited |  |  |
| TEEVRWEFPL [Peptide 117] |  |  |  |  |  |  |  |  |  |  |  |  | up to 69% | enhanced the levels of inhibitory activity |
| DSTWTNFRWEFY [Peptide 8] | significant inhibition of hemolysis | no effect | dose-dependent inhibition | dose-dependent inhibition | neither of these peptides produced an effect | dose-dependent increase in the inhibition | dose-dependent increase in the inhibition | significant competition | specifically bound complement component C5 | no observeable effect | inhibited | inhibited |  |  |
